# Several values for one entry are separate records, joined by “and”; a condition that tells them apart may be missing. Identical values can stand only once. Entries after “also recorded” stand apart in the source; their conditions may differ. Like-named read-outs stand apart in the source and are kept apart here.
# Assays:
# GST-AANAT fusion = GST-AANAT fusion (Ovis aries, UniProt Q29495); test: DTNB product detection assay, apparent substrate kinetics with GST-AANAT
# Method: (§1) DTNB Product Detection Assay
# (§2) This assay is based on the detection of CoASH generated during acetyl transfer by reaction with the thiol reagent DTNB (19). […] Reactions were initiated with enzyme (3 μl, 5-30 nM final concentration) that had been prediluted (10-100 fold) in 50 mM sodium phosphate, 500 mM NaCl, 2 mM EDTA, and 0.05 mg/ml bovine serum albumin in the absence of reducing agent immediately before use and maintained on ice during the assay. The reactions were quenched for 0-3 min with 0.6 ml of a buffer containing guanidinium-HCl (3.2 M), sodium phosphate (0.1 M), pH 6.8. […] Background absorbances (with all components added including enzyme) were measured and subtracted from the total absorbance.
# AANAT [1] = molecular target: T1, AANAT (Ovis aries, UniProt Q29495); test: Tryptamine analogs as AANAT substrates, steady-state kinetic parameters
# T1 sequence (Q29495 whole entry): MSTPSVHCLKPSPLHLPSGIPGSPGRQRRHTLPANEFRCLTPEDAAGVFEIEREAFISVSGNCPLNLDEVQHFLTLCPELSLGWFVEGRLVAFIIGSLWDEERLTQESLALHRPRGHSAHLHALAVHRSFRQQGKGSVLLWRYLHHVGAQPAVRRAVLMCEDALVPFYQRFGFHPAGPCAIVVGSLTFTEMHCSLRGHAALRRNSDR
# Method: Expression of eukaryotic proteins in bacteria is unpredictable.
# The enzymatic assays available for AANAT were direct, radioactive assays. […] Thus indirect methods to measure CoASH formation were tested.
# The first objective of these studies was to determine the tolerance of alkyl chain length for substrate processing efficiency. […] Indole-propylamine (7.1) and indole-butylamines(7.2) are not commercially available and were prepared as shown (FIG. 7) (6l).
# Another important selectivity issue was addressing the effects of a-methyl and Nw-methyl-substitutions of tryptamine analogs (FIG. 8) on AANAT catalysis. […] These compounds were obtained from commercial sources and tested as AANAT substrates. […] Using these compounds.
# AANAT [2] = molecular target: T1, AANAT; test: Viscosity studies with sucrose as microviscogen; format: biochemical, sheep; parameters: The entire open reading frame of the DNA encoding sheep AANAT in the plasmid vector pET15b; GST (glutathione S-transferase, thrombin-cleavable) (N); made in house; host or cells: Escherichia coli; settings: for slope of kcat-control/kcat-viscogen vs. relative viscosity: kcat effect (FIG. 10); for rate-determining step: viscosity studies
# From the text: An important part of enzyme mechanistic analysis is to determine which step(s) is (are) rate-determining for the enzyme reaction. After the binding of the substrates to the enzyme, there are several potential rate-determining steps, the chemical step or one of the product release steps.
# Viscosity effects can be useful for distinguishing product release steps from non-diffusional steps (66). The principle of using viscosity effects to study enzyme reaction kinetics is based on the fundamental inverse relationship between microviscosity and diffusional rates. Thus a linear increase in microviscosity caused by a microviscogen such as sucrose causes a linear decrease in the diffusion of small molecules. Since little diffusion is involved in the chemical step, this step is taken as viscosity-insensitive. However, viscogenic agents (which are used at rather high concentrations) can cause non-diffusion related effects by interacting with the enzyme or substrate. Controls for these non-diffusional effects must be carried out. […] Since poor substrates in general would be expected to have reduced kcat values because the rate of their chemical steps are reduced, any viscosity effects observed would be expected to be related to non-diffusional or "artifactual" effects.
# GST-AANAT [3] = molecular target: T2, GST-AANAT (Ovis aries, UniProt Q29495); test: Kinetic measurements with inhibitors of GST-AANAT; format: biochemical, sheep
# T2 construct: The entire open reading frame of the DNA encoding sheep AANAT in the plasmid vector pET15b; made in house; host or cells: Escherichia coli BL21(DE3)pLysS
# T2 sequence (Q29495 other isoform, or with tags, fused parts or gaps): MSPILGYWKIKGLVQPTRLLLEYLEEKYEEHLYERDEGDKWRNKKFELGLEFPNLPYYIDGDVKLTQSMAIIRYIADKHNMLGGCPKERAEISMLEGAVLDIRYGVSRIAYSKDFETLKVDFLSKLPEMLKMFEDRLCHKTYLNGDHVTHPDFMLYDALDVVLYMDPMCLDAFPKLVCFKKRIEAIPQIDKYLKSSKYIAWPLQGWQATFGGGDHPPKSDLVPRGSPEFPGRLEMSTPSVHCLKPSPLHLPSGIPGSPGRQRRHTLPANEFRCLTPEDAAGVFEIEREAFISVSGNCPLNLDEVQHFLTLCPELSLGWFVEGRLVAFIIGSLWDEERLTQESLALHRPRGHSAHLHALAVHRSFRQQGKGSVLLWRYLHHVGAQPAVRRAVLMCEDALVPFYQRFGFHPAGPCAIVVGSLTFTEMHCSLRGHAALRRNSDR
# Method: as §1
# (§3) This assay is based on the detection of CoASH generated during acetyl transfer by reaction with the thiol reagent DTNB (19). […] Reactions were initiated with enzyme (3 μl, 5-30 nM final concentration) that had been prediluted (10-100 fold) in 50 mM sodium phosphate, 500 mM NaCl, 2 mM EDTA, and 0.05 mg/ml bovine serum albumin in the absence of reducing agent immediately before use and maintained on ice during the assay. The reactions were quenched for 0-3 min with 0.6 ml of a buffer containing guanidinium-HCl (3.2 M), sodium phosphate (0.1 M), pH 6.8. These mixtures were treated with 0.1 ml of DTNB (2 mM, 0.1 M sodium phosphate, pH 6.8, 10 mM EDTA), vortexed, and allowed to stand for 5 min before absorbance readings were performed at 412 nm (thiophenolate-quantified assuming ε=13.7×10^3 M^-1 cm^-1) (19). Background absorbances (with all components added including enzyme) were measured and subtracted from the total absorbance. […] The rate of conversion of acetyl-CoA to CoASH in the absence of amine was negligible over the course of the assay.
# Kinetic Measurements with Inhibitors
# .upsilon.=Vm ·S/Km (1+I/Kis) (Eq. 3) using a nonlinear least squares approach. The fixed substrate was assumed to be saturating.
# .upsilon.=Vm ·S/[Km (1+I/Kis)+S(1+I/Kii)](Eq. […]
# (§4) using a nonlinear least squares approach.
# V=Vm ·S/[Km +S(1+I/Kii)] (Eq. 5)
# The abbreviations are Kii =Ki intercept and Kis =Ki slope based on double-reciprocal plot analysis according to the nomenclature of Cleland (21). The data for individual experiments with each inhibitor versus a varied substrate were fit to all three inhibitor models. Choice of kinetic fit was based on a combination of visual inspection and comparison of S.E. values and residuals for all three inhibition types
# GST-AANAT [4] = molecular target: T2, GST-AANAT; test: Tryptophol tested as alternative substrate of GST-AANAT; format: biochemical, sheep; settings: 1 mM tryptophol, 1 mM acetyl-CoA, up to 3 min
# Method: as §1, §3
# The structural analog to tryptamine in which the primary amine function is replaced by a hydroxyl function (tryptophol) (see FIG. 4) could theoretically be an alternative AANAT substrate.
# AANAT [5] = molecular target: T1, AANAT; test: a-Trifluoromethyltryptamine tested as AANAT substrate and competitive inhibitor; format: biochemical, sheep; parameters: The entire open reading frame of the DNA encoding sheep AANAT in the plasmid vector pET15b; GST (glutathione S-transferase, thrombin-cleavable) (N); made in house; host or cells: Escherichia coli
# Method: Expression of eukaryotic proteins in bacteria is unpredictable. Indeed, efforts to express the rat and human AANAT protein in E. coli have so far been unsuccessful. In contrast, the sheep enzyme which is 80% identical at the amino acid level to rat and human can be expressed in E. coli as a soluble protein (51). GST-AANAT can be obtained in approximately 90% purity with a yield of 5-10 mg/L of E. coli culture after purification with glutathione-agarose. Optimization of conditions for production of this fusion protein has led to the induction being carried out at 22-24° C. for 5-6 h after 0.2 mM IPTG to prevent inclusion body formation. The fusion protein can be concentrated to>6 mg/mL using an Amicon filter and appears to be stable for at least 6 months when stored at -80° C. in the presence of a thiol-reducing agent. […] Specific activity is also highly reproducible from batch to batch. Cleavage of the fusion protein with thrombin followed by repeat glutathione-affinity chromatography has afforded GST-free AANAT.
# Quantitatively, the specific activity is essentially identical to the conventional radioactive assay. Importantly, there is no evidence of significant uncoupling of CoASH production and amide formation with any substrates (or non-substrates) tested.
# Commercially available bromotrifluoromethyl ketone was converted to the oxime by reaction with hydroxylamine. The oxime was used to generate the vinyl nitroso derivative which was used in situ to react in a 4+2 cycloaddition and produce the 3-substituted indole. Reduction of this material with LiAlH4 led to generation of racemic a-trifluoromethyltryptamine. a-Trifluoromethyltryptamine was calculated to have a primary amine pKa of approximately 6. […] It is not clear from these studies if the lack of tight binding of a-trifluoromethyltryptamine represents steric or electronic repulsion of the fluorines offset by the tighter binding of the neutral amine function, or if a positively charged amine is the preferred state for binding to AANAT (65).
# GST-AANAT [6] = molecular target: T2, GST-AANAT; test: Two-substrate steady state kinetics with GST-AANAT; format: biochemical, sheep
# Method: as §1, §2
# Two-Substrate Kinetic Measurements
# Two substrate kinetic analysis was performed with substrate concentrations given in FIG. 3, and the data were fitted to the sequential (ternary complex) mechanism equation (Equation 2) using the computer program Kinet-Asyst II™ (IntelliKinetics, State College, Pa.) based on the algorithms of Cleland (20),
# .upsilon.=Vm ·A·B/(Ka ·Kb
# ·Kma ·B+Kmb ·A+A·B)(Eq. 2)
# as §4
# [7] = varied substrate acetyl-CoA, tryptamine 0.2 mM (subsaturating)
# [8] = varied substrate acetyl-CoA, tryptamine 0.2 mM, read-out: Ksi
# [9] = varied substrate tryptamine, acetyl-CoA 1 mM
# [10] = varied substrate tryptamine, acetyl-CoA 1 mM, read-out: Kis
# Chain of GST-AANAT fusion (Q29495 whole entry, the tested form may be a part): as the sequence (Q29495 whole entry) above
smiles,measurement,setting,value
"NCCc1c[nH]c2ccc(O)cc12 [Serotonin, 5-hydroxytryptamine]",kcat(app),GST-AANAT fusion; 1 mM (near saturating) concentration of the fixed substrate,34 ± 2 s⁻¹
same,kcat(app) and Km(app) compared with tryptamine,GST-AANAT fusion; serotonin vs tryptamine,nearly indistinguishable from those obtained with tryptamine
same,kcat,"AANAT [1]; Table 1, tryptamine analogs",34 ± 1 s⁻¹
"NCCc1c[nH]c2ccccc12 [Tryptamine, tryptamine]",slope of kcat-control/kcat-viscogen vs. relative viscosity,AANAT [2]; sucrose,+0.75±0.08
same,rate-determining step,AANAT [2],product release (or a conformational change associated with product release) is largely rate-determining
CNCCc1c[nH]c2ccccc12 [Nw-methyltryptamine],AANAT substrate,AANAT [1],substrates
same,kcat and Km compared to tryptamine,AANAT [1],significantly reduced kcat and Km compared to tryptamine; also recorded: substantially reduced kcat compared to tryptamine
same,slope of kcat-control/kcat-viscogen vs. relative viscosity,AANAT [2]; sucrose,+0.16±0.03
same,slope of kcat/Km control/viscogen vs. relative viscosity,"AANAT [2]; sucrose, kcat/Km effect",-0.14±0.03
same,rate-determining step,AANAT [2],the chemical step is rate-determining
"OCCc1c[nH]c2ccccc12 [Tryptophol, tryptophol]",Inhibitor pattern,GST-AANAT [3]; [7],uncompetitive
same,Inhibitor pattern,"GST-AANAT [3]; varied substrate acetyl-CoA, tryptamine 0.2 mM (subsaturating), listed as trypochol",linear uncompetitive
same,Inhibitor pattern,"GST-AANAT [3]; varied substrate acetyl-CoA, tryptamine 0.2 mM (subsaturating), listed as tryptophol",uncompetitive inhibitor
same,Ki,GST-AANAT [3]; [8],1360 ± 120 µM
same,Inhibitor pattern,GST-AANAT [3]; [9],competitive
same,Inhibitor pattern,"GST-AANAT [3]; varied substrate tryptamine, acetyl-CoA 1 mM, listed as tryptophol",linear competitive inhibitor
same,Ki,GST-AANAT [3]; [10],680 ± 78 µM
same,Kis relative to Kii in a noncompetitive fit,GST-AANAT [3]; versus acetyl-CoA,more than 10 times
same,acetyl transfer (alternative substrate),GST-AANAT [4],prevents enzyme-catalyzed acetyl transfer; also recorded: not an alternative substrate
same,"acetylation efficiency relative to tryptamine, fold less",GST-AANAT [4],at least 400 fold
same,acetyl transfer (alternative substrate),GST-AANAT [4]; listed as tryptophol,no detectable transfer took place; also recorded: not a substrate
"CCNC(=O)CCNC(=O)[C@H](O)C(C)(C)COP(=O)(O)OP(=O)(O)OC[C@H]1O[C@@H](n2cnc3c(N)ncnc32)[C@H](O)[C@@H]1OP(=O)(O)O [Desulfo-CoA, desulfo-CoA]",Ki,"GST-AANAT [3]; quoted in discussion, read-out: K1",1000 µM
same,Kis relative to dissociation constant of acetyl-CoA,GST-AANAT [3]; saturating tryptamine,2 fold
same,Inhibitor pattern,"GST-AANAT [3]; varied substrate acetyl-CoA, tryptamine 1 mM",linear competitive inhibitor
same,Inhibitor pattern,"GST-AANAT [3]; varied substrate acetyl-CoA, tryptamine 1 mM, listed as desulfo-CoA",linear competitive
same,Ki,"GST-AANAT [3]; varied substrate acetyl-CoA, tryptamine 1 mM, read-out: Kis",1020 µM and 1000 µM
same,Inhibitor pattern,"GST-AANAT [3]; varied substrate tryptamine, acetyl-CoA 0.2 mM",noncompetitive inhibitor
same,Inhibitor pattern,"GST-AANAT [3]; varied substrate tryptamine, acetyl-CoA 0.2 mM, listed as desulfo-CoA",linear noncompetitive
same,Ki,"GST-AANAT [3]; varied substrate tryptamine, acetyl-CoA 0.2 mM, read-out: Kis",1340 ± 450 µM
same,Ki,"GST-AANAT [3]; varied substrate tryptamine, acetyl-CoA 0.2 mM, read-out: Ksi",1490 ± 230 µM
CC(N)Cc1c[nH]c2ccccc12 (racemic) [a-methyltryptamine],AANAT substrate,AANAT [1],substrates
same,kcat and Km compared to tryptamine,AANAT [1],significantly reduced kcat and Km compared to tryptamine
NC(Cc1c[nH]c2ccccc12)C(F)(F)F (racemic) [a-trifluoromethyltryptamine],AANAT substrate,AANAT [5],not detectably an AANAT substrate
same,Ki,AANAT [5]; competitive inhibitor,3000 ± 1000 µM
same,AANAT substrate,AANAT [5]; listed as Ya-Trifluoromethyltryptamine,not to be a substrate
"CC(=O)SCCNC(=O)CCNC(=O)[C@H](O)C(C)(C)COP(=O)(O)OP(=O)(O)OC[C@H]1O[C@@H](n2cnc3c(N)ncnc32)[C@H](O)[C@@H]1OP(=O)(O)O [Acetyl-CoA, acetyl-CoA]",Kd,"GST-AANAT [6]; ordered sequential mechanism, read-out: Kin (dissociation constant of the first binding substrate)",509 ± 156 µM
same,Kd,GST-AANAT [6]; read-out: dissociation constant (Kd),510 µM
"CC(=O)NCCc1c[nH]c2ccccc12 [N-Acetyltryptamine, N-acetyltryptamine]",Inhibitor pattern,GST-AANAT [3]; [7],uncompetitive
same,Inhibitor pattern,"GST-AANAT [3]; varied substrate acetyl-CoA, tryptamine 0.2 mM (subsaturating), listed as N-acetyltryptamine",uncompetitive inhibitor
same,Ki,GST-AANAT [3]; [8],331 ± 23 µM
same,Inhibitor pattern,GST-AANAT [3]; [9],noncompetitive
same,Inhibitor pattern,"GST-AANAT [3]; varied substrate tryptamine, acetyl-CoA 1 mM, listed as N-acetyltryptamine",noncompetitive inhibitor; also recorded: linear noncompetitive
same,Ki,GST-AANAT [3]; [10],205 ± 29 µM
same,Ki,"GST-AANAT [3]; varied substrate tryptamine, acetyl-CoA 1 mM, read-out: Ksi",916 ± 160 µM

# From US5990094A, “Inhibitors of sorotonin N-acetyltransferase” (The Rockefeller University, priority 1998, dated 1999)
